The test system of test [1] is artificial intestinal tract formed from an intestinal organoid. The test can be described thus: Organ bath assay: contractile and relaxant responses of artificial intestinal tract to electrical stimulation. The arrangement: species or system human.
The test system of test [2] is vagal neural crest cells. The test can be described thus: Study on composition of enteric neural precursor medium (NRG1 and/or GDNF not added). Format: cell-based, human. The conditions noted are these: for cell proliferation: enteric neural precursor medium without the named factor (factor-free conditions). How it is done:
The medium was aspirated and replaced with PBS. Then, the cells were detached using a cell scraper. The detached cell mass was dissociated by pipetting in Accutase® (Innovative Cell Technologies, Inc.). Then, MACS® Buffer (Miltenyi Biotec) was added thereto, and the cells were prepared into single cells through a 40 µm cell strainer. The obtained cell suspension was centrifuged at 300×g for 3 minutes. Then, the supernatant was removed, and the cells were suspended in an enteric neural precursor medium. The enteric neural precursor medium used was a mixture of solutions A and B of Stem Fit® AK03N containing 10 μM SB431542 (FUJIFILM Wako Pure Chemical Corp.), 1 μM CHIR99021 (Axon MedChem), 1 μM retinoic acid (FUJIFILM Wako Pure Chemical Corp.), 100 ng/mL neuregulin 1 (NRG1) (PeproTech, Inc.) and […] glial cell-derived neurotrophic factor (GDNF) (FUJIFILM Wako Pure Chemical Corp.). For adherent culture, Matrigel® (Corning Inc.) was added at 2% to the cell suspension, which was then cultured using a multiwell plate (Corning Inc.). For suspension culture, a multiwell plate (Corning Inc.) treated for low cell adhesion was used. The culture in both cases was carried out at 37° C. under 5% CO2.
Vagal neural crest cells were cultured in an enteric neural precursor medium under the same conditions as in Test Example 4 except that NRG1 and/or GDNF was not added to the enteric neural precursor medium. The cells were observed under a fluorescence microscope (BZ-X700, Keyence Corp.). Also, flow cytometry analysis was conducted by the same method as in Test Example 5.

Structures can show the parent of a compound that is named as a salt. Where two headings read alike, the source gives them in different places.

In the case of `COC(=O)[C@@H](N)CCCN=C(N)N[N+](=O)[O-].Cl` [NG-nitro-L-arginine methyl ester hydrochloride], the “relaxant response dependent on electrical stimulation” value in test [1] (after atropine, phenoxybenzamine, propranolol, concentration not given) is given as “disappeared”. With `CN1[C@@H]2CC[C@H]1C[C@@H](OC(=O)C(CO)c1ccccc1)C2` (some centres unmarked) [atropine sulfate monohydrate], the “contractile response to electrical stimulation” value in test [1] was “partially canceled”. Turning to `NC1=N[C@H](O)[C@H]2[C@H]3O[C@]4(O)O[C@@H]([C@@H](O)[C@@]2(N1)[C@@H]4O)[C@]3(O)CO` [tetrodotoxin], in test [1], the “cancelation of the contractile response by atropine, phenoxybenzamine or propranolol” value is on record as “disappeared”.

For the molecule `CC(C)NCC(O)COc1cccc2ccccc12` (centres unmarked) [propranolol hydrochloride], the “contractile response to electrical stimulation” value in test [1] (addition of 10 μM, strip of artificial intestinal tract in Krebs solution) is given as “partially canceled”. On to `CC(COc1ccccc1)N(CCCl)Cc1ccccc1` (centres unmarked) [phenoxybenzamine hydrochloride], for which the “contractile response to electrical stimulation” value in test [1] is given as “partially canceled”.

B1: GDNF: factor encoded by GDNF gene; acts as an agonist of GFRα1 and RET (protein, UniProt P39905 78-211, looked up)
Glial cell line-derived …: SPDKQMAVLPRRERNRQAAAANPENSRGKGRRGQRGKNRGCVLTAIHLNVTDLGLGYETKEELIFRYCSGSCDAAETTYDKILKNLSRNRRLVSDKVGQACCRPIAFDDDLSFLDDNLVYHILRKHSAKRCGCI
On to B1, for which the cell proliferation result in test [2] is recorded as “slower than that under the conditions involving GDNF”.

B2: NRG1: EGF-like growth factor encoded by NRG1 gene; activates downstream signaling by binding to ERBB3 and ERBB4 (protein, listed as Homo sapiens)
chain: MSERKEGRGKGKGKKKERGSGKKPESAAGSQSPALPPRLKEMKSQESAAGSKLVLRCETSSEYSSLRFKWFKNGNELNRKNKPQNIKIQKKPGKSELRINKASLADSGEYMCKVISKLGNDSASANITIVESNEIITGMPASTEGAYVSSESPIRISVSTEGANTSSSTSTSTTGTSHLVKCAEKEKTFCVNGGECFMVKDLSNPSRYLCKCPNEFTGDRCQNYVMASFYKHLGIEFMEAEELYQKRVLTITGICIALLVVGIMCVVAYCKTKKQRKKLHDRLRQSLRSERNNMMNIANGPHHPNPPPENVQLVNQYVSKNVISSEHIVEREAETSFSTSHYTSTAHHSTTVTQTPSHSWSNGHTESILSESHSVIVMSSVENSRHSSPTGGPRGRLNGTGGPRECNSFLRHARETPDSYRDSPHSERYVSAMTTPARMSPVDFHTPSSPKSPPSEMSPPVSSMTVSMPSMAVSPFMEEERPLLLVTPPRLREKKFDHHPQQFSSFHHNPAHDSNSLPASPLRIVEDEEYETTQEYEPAQEPVKKLANSRRAKRTKPNGHIANRLEVDSNTSSQSSNSESETEDERVGEDTPFLGIQNPLAASLEATPAFRLADSRTNPAGRFSTQEEIQARLSSVIANQDPIAV
Consider B2, for which the “cell number necessary for conducting flow cytometry” value in test [2] (enteric neural precursor medium without the named factor) was “not obtained”. Also, the cell proliferation entry in test [2] was “very slow”.

Source of the values: US12516288B2, “Method for producing enteric neural precursors” (Kyoto University, priority 2018, dated 2026).
